# Where two headings read alike, the source gives them in different places.
# Key:
# [1] = cited from earlier work
# [2] = system: subjects chronically ill with tuberculosis; details: chronic dosing schedules, typical tuberculosis doses 500-1000 mg/day; cited from earlier work
# rats = details: cited from earlier work
# [3] = system: Mycobacterium tuberculosis strains; details: typical Mycobacterium tuberculosis strains; cited from earlier work
# subjects with acrophobia = details: DCS administered prior to virtual reality therapy sessions, versus placebo; cited from earlier work
# Sprague Dawley rats = assay: Extinction of fear-potentiated startle in rats with post-extinction training pre-sleep administration; assay type: in vivo, rat; details: higher values signify greater extinction
# Experimental: Subjects. Twenty male, Sprague Dawley rats (300-350 grams) were used. Rats were placed in cages used to measure the acoustic startle reflex (Cassella, J. V., and Davis, M. “The design and calibration of a startle measurement system”, Physiology & Behavior (1986), 36, pp. 377-383) and, after a 5 minute acclimation period, presented with 50 startle stimuli (50-ms duration, 5-ms rise-decay time), 10 at each of five intensities (95, 100, 105, 110, and 115 dB) in a semi-random order at a 30-s interstimulus interval. The animals were subsequently divided into four groups of five rats, each having similar mean startle amplitudes across the 10 stimuli at the five intensities.
# Fear conditioning and testing. On two consecutive training days, animals were placed in the startle chambers and after a 5-min acclimation period, presented with 10 light shock pairings. The shock was presented during the last 500 ms of the 3,700-ms light at an average intertrial interval of 3 minutes (range, 2-4 min). No further shocks were presented thereafter. Twenty-four hours after the second training day, rats were placed in the startle chamber and presented with 30 95-dB startle stimuli (leaders), followed by the first of 10 startle stimuli presented 3.2 seconds after onset of the light that had previously been paired with a shock, and 10 more startle stimuli alone. The two trial types (light-startle and startle-alone) were presented in an irregular balanced order at a 30-s interstimulus interval. Based on the mean difference in startle amplitude between the mean startle amplitude across the last 10 leaders and the mean startle amplitude across the light-startle trials, a percent fear-potentiated startle was computed as: [(mean difference in startle amplitude between the light-startle and leaders)/mean leaders]×100. The rats were divided into four groups.
# Extinction training with or without sleep deprivation. […] Although sleep was not measured directly, the rats were observed on closed-circuit TV and appeared to sleep (rats tend to sleep in the day, when the lights are on). […]
compound,measurement,setting,value
"N[C@@H]1CON=C1O [DCS, D-cycloserine]",peak serum concentrations,"[1]; child subject, sub-antimicrobial dose less than or equal to 2 mg/kg",less than or equal to 5 μg/mL
same,serum concentrations generally maintained,"[1]; dose of 500 mg/day, chronic treatment of tuberculosis",25000 to 30000 ng/mL
same,time of peak serum concentrations after dosing,[1]; known oral capsules,3 to 8 h
same,peak serum concentrations,"[1]; sub-antimicrobial dose, less than or equal to 2 mg/kg, substantial variability between subjects",less than or equal to 5 μg/mL
same,recorded side effects,[2],"drowsiness, depression, headache, confusion, tremor, vertigo, and memory difficulties, paresthesias, and seizure"
same,effect on extinction learning,rats; DCS injected after extinction training,facilitated extinction learning
same,effect on extinction learning,rats; delay between extinction training and administration of DCS increased to four hours,no significant facilitatory effect
same,minimum inhibitory concentrations (MIC) in vitro,[3],6 to 25 µg/mL
same,number of therapy sessions required to reach a defined clinical endpoint,subjects with acrophobia,significant reduction
same,mean change in percent fear-potentiated startle prior to and after extinction training,"Sprague Dawley rats; DCS-DCS group: 15 mg/kg DCS i.p. 15 min before extinction training and again pre-sleep 4 h after training, n=3",176%
same,mean change in percent fear-potentiated startle prior to and after extinction training,"Sprague Dawley rats; DCS-Sal group: 15 mg/kg DCS i.p. 15 min before extinction training, saline pre-sleep 4 h after training, n=3",78%
same,mean change in percent fear-potentiated startle prior to and after extinction training,"Sprague Dawley rats; Sal-DCS group: saline i.p. 15 min before extinction training, 15 mg/kg DCS i.p. pre-sleep 4 h after training, n=4",164%

# — patent US7655655B1, “Method for facilitating extinction training using D-cycloserine” (priority 2009, dated 2010)
